Measured values: ChEMBL document CHEMBL1201862, “PubChem BioAssay data set” (2004)
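Protocol summary: plate cells (96-well), add compound at 5 concentrations, incubate 48 h, interpolate endpoints linearly. GI50 is the concentration that inhibits growth by half.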 Calls of active or inactive are those of the source. No stated cut-off is given here; in the data, active = GI50 up to about 1.1 µM and inactive = higher.

What was measured:
Assay in all cases: NCI anticancer screen, dose series, 48 h
UACC-257 = tested on: UACC-257
IGROV-1 = tested on: IGROV-1
SK-MEL-5 = tested on: SK-MEL-5
Malme-3M = tested on: Malme-3M
UO-31 = tested on: UO-31
K562 = tested on: K562
SF-268 = tested on: SF-268
HCT-116 = tested on: HCT-116
NCI-H522 = tested on: NCI-H522
SF-539 = tested on: SF-539
NCI-H226 = tested on: NCI-H226
SF-295 = tested on: SF-295
SK-OV-3 = tested on: SK-OV-3
RPMI-8226 = tested on: RPMI-8226
CCRF-CEM = tested on: CCRF-CEM
LOX IMVI = tested on: LOX IMVI
OVCAR-5 = tested on: OVCAR-5
SNB-19 = tested on: SNB-19
SNB-75 = tested on: SNB-75
RXF 393 = tested on: RXF 393

Compound | GI50 (UACC-257) | GI50 (IGROV-1) | GI50 (SK-MEL-5) | GI50 (Malme-3M) | GI50 (UO-31) | GI50 (K562) | GI50 (SF-268) | GI50 (HCT-116) | GI50 (NCI-H522) | GI50 (SF-539) | GI50 (NCI-H226) | GI50 (SF-295) | GI50 (SK-OV-3) | GI50 (RPMI-8226) | GI50 (CCRF-CEM) | GI50 (LOX IMVI) | GI50 (OVCAR-5) | GI50 (SNB-19) | GI50 (SNB-75) | GI50 (RXF 393)
COc1cc2c(cc1OC)C13CCN4CC5=CCOC(CC(=O)O)C(C5CC41)C3N2 (configuration not stated) | > 100 µM (inactive) | > 100 µM (inactive) | > 100 µM (inactive) | > 100 µM (inactive) | > 100 µM (inactive) | > 100 µM (inactive) | > 100 µM (inactive) | > 100 µM (inactive) | > 100 µM (inactive) | > 100 µM (inactive) | > 100 µM (inactive) | > 100 µM (inactive) | > 100 µM (inactive) | > 100 µM (inactive) | 61.1 µM (inactive) | > 100 µM (inactive) | > 100 µM (inactive) | > 100 µM (inactive) |  | 
COc1ccc(-c2c3c(nc4[nH]c(=S)[nH]c(=S)c24)CCCC3)cc1OC | 32 µM (inactive) | 29.9 µM (inactive) | 16.6 µM (inactive) | 29 µM (inactive) | 14.6 µM (inactive) | 30 µM (inactive) | 31 µM (inactive) | 29.4 µM (inactive) |  | 15.3 µM (inactive) |  | 14.7 µM (inactive) | 44.4 µM (inactive) | 21 µM (inactive) | 28.5 µM (inactive) | 16.8 µM (inactive) | 28.8 µM (inactive) | 34.3 µM (inactive) | 14.3 µM (inactive) | 11.9 µM (inactive)
COP(=O)(OC)C(Cc1c[nH]c2ccccc12)NC(=O)OCc1ccccc1 (configuration not stated) | > 100 µM (inactive) | > 100 µM (inactive) | > 100 µM (inactive) |  | > 100 µM (inactive) | > 100 µM (inactive) |  | > 100 µM (inactive) | > 100 µM (inactive) |  | > 100 µM (inactive) | > 100 µM (inactive) | > 100 µM (inactive) | > 100 µM (inactive) | 5.89 µM (inactive) | > 100 µM (inactive) | > 100 µM (inactive) | > 100 µM (inactive) | > 100 µM (inactive) | 
C=CC(OC(=O)C(C)C)c1ccc(OC(=O)C(C)C)cc1 (configuration not stated) | 14.7 µM (inactive) | 18.4 µM (inactive) | 16.3 µM (inactive) | 7.57 µM (inactive) | 17.2 µM (inactive) | 7.96 µM (inactive) | 26.2 µM (inactive) | 4.06 µM (inactive) | 1.73 µM (inactive) | 17 µM (inactive) | 20.6 µM (inactive) | 15.6 µM (inactive) | 19.8 µM (inactive) | 2.04 µM (inactive) | 3.24 µM (inactive) | 4.47 µM (inactive) | 6.5 µM (inactive) | 14.9 µM (inactive) | 15 µM (inactive) | 
Cc1cc(O)nc(NN2C(Cl)C(=O)C2c2ccco2)n1 (configuration not stated) | 48.9 µM (inactive) | 27 µM (inactive) | 41.7 µM (inactive) |  | 23.1 µM (inactive) | 29.7 µM (inactive) | 29.4 µM (inactive) | 43.4 µM (inactive) |  | 22.6 µM (inactive) |  |  |  | 16.3 µM (inactive) | 8.2 µM (inactive) | 23.3 µM (inactive) | > 100 µM (inactive) | 32 µM (inactive) | 13.7 µM (inactive) | 13 µM (inactive)
Cc1ccc(C(=O)N/N=C(\N=N\c2cccc([N+](=O)[O-])c2)c2ccc(N(C)C)cc2)cc1 | 58.3 µM (inactive) | > 100 µM (inactive) | 25.7 µM (inactive) |  | 61.2 µM (inactive) | 30.3 µM (inactive) | > 100 µM (inactive) | > 100 µM (inactive) | 37.2 µM (inactive) | > 100 µM (inactive) | > 100 µM (inactive) | 48.6 µM (inactive) |  | 61.9 µM (inactive) | 35 µM (inactive) | 99.8 µM (inactive) | > 100 µM (inactive) | 54.5 µM (inactive) |  | 
O=C(O)c1c[nH]c2c(=O)[nH]cnc12 | > 100 µM (inactive) | > 100 µM (inactive) | > 100 µM (inactive) | > 100 µM (inactive) | > 100 µM (inactive) | > 100 µM (inactive) | > 100 µM (inactive) | > 100 µM (inactive) | > 100 µM (inactive) |  |  | > 100 µM (inactive) | > 100 µM (inactive) | > 100 µM (inactive) | > 100 µM (inactive) | > 100 µM (inactive) | > 100 µM (inactive) | > 100 µM (inactive) | > 100 µM (inactive) | > 100 µM (inactive)
O=C(Nc1c(Cl)cc([N+](=O)[O-])cc1Cl)/C(=N\Nc1cccc(Cl)c1)c1c(O)c2ccccc2oc1=O | > 100 µM (inactive) | > 100 µM (inactive) | > 100 µM (inactive) | > 100 µM (inactive) | 23.6 µM (inactive) | 65.9 µM (inactive) | 69.8 µM (inactive) | 56.1 µM (inactive) | 39.9 µM (inactive) | > 100 µM (inactive) |  | > 100 µM (inactive) | > 100 µM (inactive) | 50 µM (inactive) | 75.2 µM (inactive) |  | 31.3 µM (inactive) | 87.1 µM (inactive) |  | 66.2 µM (inactive)
CCOC(=O)C1=C(C)N(c2ccc(Cl)cc2)C2(O)C=CC(Nc3ccc(Cl)cc3)=C3C(=O)N(c4ccccc4)C(=O)C312 (configuration not stated) | 13.3 µM (inactive) | 5.36 µM (inactive) | 2.39 µM (inactive) | 7.71 µM (inactive) | 4.89 µM (inactive) | 3.23 µM (inactive) | 2.4 µM (inactive) |  | 1.34 µM (inactive) | 3.87 µM (inactive) |  | 3.18 µM (inactive) | 8.85 µM (inactive) | 1.32 µM (inactive) | 1.64 µM (inactive) | 1.67 µM (inactive) | 3.96 µM (inactive) | 5.68 µM (inactive) | 4.18 µM (inactive) | 
C/C(N)=N/OCc1nc(C)no1 | > 100 µM (inactive) |  | > 100 µM (inactive) |  | > 100 µM (inactive) | > 100 µM (inactive) | > 100 µM (inactive) | > 100 µM (inactive) | > 100 µM (inactive) | > 100 µM (inactive) |  | > 100 µM (inactive) | > 100 µM (inactive) | > 100 µM (inactive) | > 100 µM (inactive) |  |  | > 100 µM (inactive) | > 100 µM (inactive) | > 100 µM (inactive)
COc1cccc2ccc(C(=O)c3ccccc3)nc12 |  | > 100 µM (inactive) | > 100 µM (inactive) | > 100 µM (inactive) | 2.22 µM (inactive) | > 100 µM (inactive) | > 100 µM (inactive) | > 100 µM (inactive) | > 100 µM (inactive) | > 100 µM (inactive) | > 100 µM (inactive) | > 100 µM (inactive) |  | > 100 µM (inactive) | 79.4 µM (inactive) | > 100 µM (inactive) | > 100 µM (inactive) |  | > 100 µM (inactive) | 
CC1=C(CO)C(=O)O[C@@H]([C@@H](C)[C@H]2CC[C@H]3[C@@H]4C[C@H]5O[C@]56[C@@H](O)C=CC(=O)[C@]6(C)[C@H]4CC[C@]23C)C1 [WITHAFERIN A] | 1.59 µM (inactive) | 1.16 µM (inactive) | 1.68 µM (inactive) | 0.243 µM (active) | 1.09 µM (active) | 0.193 µM (active) | 0.352 µM (active) | 0.282 µM (active) | 0.0335 µM (active) | 1.34 µM (inactive) | 1.3 µM (inactive) | 4.22 µM (inactive) |  | 0.247 µM (active) | 0.113 µM (active) |  | 1.91 µM (inactive) | 2.99 µM (inactive) | 4.11 µM (inactive) | 
